US9399646B2 (Genentech, Inc., priority 2010, dated 2016)

Experiments:
[1] = system: MCF-7 cells; assay: Breast cancer cell viability assay (CellTiter-Glo, 5 days); format: cell-based; conditions: 5 days' compound exposure; for IC50: Homo sapiens, MCF7, 120 h
How it was run: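 Eleven-point semilog compound series, final 0.3-0.000003 μM, added to overnight-adhered MCF-7 cells (320/well; RPMI, 10% FBS, 20 mM HEPES) for 5 days. Viability read by CellTiter-Glo luminescence, background from medium without cells subtracted, expressed relative to untreated cells.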

[2] = biological target: T1, ER-α in MCF-7 cells (Homo sapiens, UniProt P03372); assay: Breast cancer cell ER-α in cell western assay (SP1); format: cell-based; design: endogenous in cells; host or cells: MCF-7; conditions: 4 or 24 hr post compound addition; for Emax: MCF7, SP1 antibody, read-out: ER-α In Cell Western Assay (SP1) Max Response; for DC50: SP1 antibody, read-out: ER-α In Cell Western Assay (SP1) IC50
T1 sequence (P03372 1-595): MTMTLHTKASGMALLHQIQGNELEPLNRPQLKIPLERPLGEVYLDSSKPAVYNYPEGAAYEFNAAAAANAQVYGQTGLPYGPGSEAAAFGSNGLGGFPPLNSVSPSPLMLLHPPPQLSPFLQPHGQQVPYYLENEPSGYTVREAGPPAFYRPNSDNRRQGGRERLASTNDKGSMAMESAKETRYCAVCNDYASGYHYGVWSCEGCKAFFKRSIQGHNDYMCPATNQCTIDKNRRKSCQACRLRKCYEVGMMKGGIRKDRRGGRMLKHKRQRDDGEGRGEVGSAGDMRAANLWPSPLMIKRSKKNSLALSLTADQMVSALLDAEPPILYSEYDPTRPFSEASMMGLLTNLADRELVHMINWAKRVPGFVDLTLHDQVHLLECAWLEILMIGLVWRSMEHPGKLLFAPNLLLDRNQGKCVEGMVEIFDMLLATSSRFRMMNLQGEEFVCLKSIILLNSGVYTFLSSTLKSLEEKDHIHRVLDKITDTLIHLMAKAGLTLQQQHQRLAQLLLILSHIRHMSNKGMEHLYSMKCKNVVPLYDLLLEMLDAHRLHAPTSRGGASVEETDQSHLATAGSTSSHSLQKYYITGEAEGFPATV
How it was run: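 MCF-7, charcoal-stripped FBS/RPMI, 3200 cells/well, adhered overnight. Formalin fix, SP1 Ab o/n 4 °C, IRDye 800CW + DRAQ5; % ER = 800/700 ratio vs untreated.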

| SMILES | MCF7 Viability Assay Max Response [1] | IC50 [1] | Emax [2] | DC50 [2] |
| --- | --- | --- | --- | --- |
| CC/C(=C(/c1ccc(/C=C/C(=O)NS(=O)(=O)c2cccnc2)cc1)c1ccc2[nH]ncc2c1)c1ccc(F)cc1Cl [Compound 433, (E)-3-(4-((E)-2-(2-Chloro-4-fluorophenyl)-1-(1H-indazol-5-yl)but-1-en-1-yl)phenyl)-N-(pyridin-3-ylsulfonyl)acrylamide] | ++ (++ = a single % value ≧ 40%) | ≤ 100 nM | ≥ 40% | ≤ 100 nM |
| CC/C(=C(/c1ccc(/C=C/C(=O)NS(=O)(=O)c2ccncc2)cc1)c1ccc2[nH]ncc2c1)c1ccc(F)cc1Cl [Compound 434, (E)-3-(4-((E)-2-(2-Chloro-4-fluorophenyl)-1-(1H-indazol-5-yl)but-1-en-1-yl)phenyl)-N-(pyridin-4-ylsulfonyl)acrylamide] | ++ (++ = a single % value ≧ 40%) | ≤ 100 nM | ≥ 40% | ≤ 100 nM |
| CC/C(=C(/c1ccc(/C=C/c2noc(=O)[nH]2)cc1)c1ccc2[nH]ncc2c1)c1ccccc1 [Compound 435, 3-((E)-4-((E)-1-(1H-Indazol-5-yl)-2-phenylbut-1-en-1-yl)styryl)-1,2,4-oxadiazol-5(4H)-one] | ++ (++ = a single % value ≧ 40%) | ≤ 100 nM | ≥ 40% | ≤ 100 nM |
| CC/C(=C(/c1ccc(/C=C/c2noc(=O)[nH]2)cc1)c1ccc2scnc2c1)c1ccc(F)cc1Cl [Compound 436, 3-((E)-4-((E)-1-(Benzo[d]thiazol-5-yl)-2-(2-chloro-4-fluorophenyl)but-1-en-1-yl)styryl)-1,2,4-oxadiazol-5(4H)-one] | ++ (++ = a single % value ≧ 40%) | ≤ 100 nM | ≥ 40% | ≤ 100 nM |
| CC/C(=C(/c1ccc(/C=C/c2noc(=O)[nH]2)cc1)c1ccc2[nH]ncc2c1)c1ccc(F)cc1Cl [Compound 437, 3-((E)-4-((E)-2-(2-Chloro-4-fluorophenyl)-1-(1H-indazol-5-yl)but-1-en-1-yl)styryl)-1,2,4-oxadiazol-5(4H)-one] | ++ (++ = a single % value ≧ 40%) | ≤ 100 nM | ≥ 40% | ≤ 100 nM |
| CC/C(=C(/c1ccc(/C=C/c2nsc(=O)[nH]2)cc1)c1ccc2[nH]ncc2c1)c1ccccc1 [Compound 438, 3-((E)-4-((E)-1-(1H-Indazol-5-yl)-2-phenylbut-1-en-1-yl)styryl)-1,2,4-thiadiazol-5(4H)-one] | ++ (++ = a single % value ≧ 40%) | ≤ 100 nM | ≥ 40% | ≤ 100 nM |
| CC/C(=C(/c1ccc(/C=C/c2nsc(=O)[nH]2)cc1)c1ccc2[nH]ncc2c1)c1ccc(F)cc1Cl [Compound 439, 3-((E)-4-((E)-2-(2-Chloro-4-fluorophenyl)-1-(1H-indazol-5-yl)but-1-en-1-yl)styryl)-1,2,4-thiadiazol-5(4H)-one] | ++ (++ = a single % value ≧ 40%) | ≤ 100 nM | ≥ 40% | ≤ 100 nM |
| CC/C(=C(/c1ccc(/C=C/c2noc(=S)[nH]2)cc1)c1ccc2[nH]ncc2c1)c1ccccc1 [Compound 440, 3-((E)-4-((E)-1-(1H-Indazol-5-yl)-2-phenylbut-1-en-1-yl)styryl)-1,2,4-oxadiazole-5(4H)-thione] | + (+ = a single % value < 40%) | ≤ 100 nM | ≥ 40% | ≤ 100 nM |
| CC/C(=C(/c1ccc(/C=C/c2noc(=S)[nH]2)cc1)c1ccc2[nH]ncc2c1)c1ccc(F)cc1Cl [Compound 441, 3-((E)-4-((E)-2-(2-Chloro-4-fluorophenyl)-1-(1H-indazol-5-yl)but-1-en-1-yl)styryl)-1,2,4-oxadiazole-5(4H)-thione] | + (+ = a single % value < 40%) | ≤ 100 nM | ≥ 40% | ≤ 100 nM |
| CC/C(=C(/c1ccc(/C=C/c2nn[nH]n2)cc1)c1ccc2[nH]ncc2c1)c1ccccc1 [Compound 442, 5-((E)-1-(4-((E)-2-(2H-Tetrazol-5-yl)vinyl)phenyl)-2-phenylbut-1-en-1-yl)-1H-indazole] | ++ (++ = a single % value ≧ 40%) | ≤ 100 nM | ≥ 40% | ≤ 100 nM |
| CC/C(=C(/c1ccc(/C=C/c2nn[nH]n2)cc1)c1ccc2[nH]ncc2c1)c1ccccc1Cl [Compound 443, 5-((E)-1-(4-((E)-2-(2H-Tetrazol-5-yl)vinyl)phenyl)-2-(2-chlorophenyl)but-1-en-1-yl)-1H-indazole] | ++ (++ = a single % value ≧ 40%) | ≤ 100 nM | ≥ 40% | ≤ 100 nM |
| CC/C(=C(/c1ccc(/C=C/c2nn[nH]n2)cc1)c1ccc2scnc2c1)c1ccccc1 [Compound 444, 5-((E)-1-(4-((E)-2-(2H-Tetrazol-5-yl)vinyl)phenyl)-2-phenylbut-1-en-1-yl)benzo[d]thiazole] | ++ (++ = a single % value ≧ 40%) | > 100 nM | ≥ 40% | ≤ 100 nM |
| CC/C(=C(/c1ccc(/C=C/c2nn[nH]n2)cc1)c1ccc2scnc2c1)c1ccc(F)cc1Cl [Compound 445, 5-((E)-1-(4-((E)-2-(2H-Tetrazol-5-yl)vinyl)phenyl)-2-(2-chloro-4-fluorophenyl)but-1-en-1-yl)benzo[d]thiazole] | ++ (++ = a single % value ≧ 40%) | ≤ 100 nM | ≥ 40% | ≤ 100 nM |
| CC/C(=C(/c1ccc(/C=C/c2nn[nH]n2)cc1)c1ccc2scnc2c1)c1ccncc1Cl [Compound 446, 5-((E)-1-(4-((E)-2-(2H-Tetrazol-5-yl)vinyl)phenyl)-2-(3-chloropyridin-4-yl)but-1-en-1-yl)benzo[d]thiazole] | ++ (++ = a single % value ≧ 40%) | ≤ 100 nM | ≥ 40% | ≤ 100 nM |
| CC/C(=C(/c1ccc(/C=C/c2nn[nH]n2)cc1)c1ccc2scnc2c1)c1cscc1C [Compound 447, 5-((E)-1-(4-((E)-2-(2H-Tetrazol-5-yl)vinyl)phenyl)-2-(4-methylthiophen-3-yl)but-1-en-1-yl)benzo[d]thiazole] | ++ (++ = a single % value ≧ 40%) | ≤ 100 nM | ≥ 40% | ≤ 100 nM |
| Cc1cscc1/C(=C(\c1ccc(/C=C/c2nn[nH]n2)cc1)c1ccc2scnc2c1)C1CCC1 [Compound 448, 5-((E)-1-(4-((E)-2-(2H-Tetrazol-5-yl)vinyl)phenyl)-2-cyclobutyl-2-(4-methylthiophen-3-yl)vinyl)benzo[d]thiazole] | ++ (++ = a single % value ≧ 40%) | ≤ 100 nM | ≥ 40% | ≤ 100 nM |
| CC/C(=C(/c1ccc2cc(C(=O)O)ccc2c1)c1ccc2[nH]ncc2c1)c1ccccc1 [Compound 449, (E)-6-(1-(1H-Indazol-5-yl)-2-phenylbut-1-en-1-yl)-2-naphthoic acid] | ++ (++ = a single % value ≧ 40%) | ≤ 100 nM | ≥ 40% | ≤ 100 nM |
| CC/C(=C(/c1ccc(/C=C/C(=O)O)cc1)c1coc2c(O)cccc12)c1ccc(F)cc1Cl [Compound 450, (E)-3-(4-((E)-2-(2-Chloro-4-fluorophenyl)-1-(7-hydroxybenzofuran-3-yl)but-1-en-1-yl)phenyl)acrylic acid] | ++ (++ = a single % value ≧ 40%) | ≤ 100 nM | ≥ 40% | ≤ 100 nM |
| CC/C(=C(/c1ccc(/C=C/C(=O)O)cc1)c1coc2c(O)cccc12)c1ccccc1 [Compound 451, (E)-3-(4-((E)-1-(7-Hydroxybenzofuran-3-yl)-2-phenylbut-1-en-1-yl)phenyl)acrylic acid] | ++ (++ = a single % value ≧ 40%) | ≤ 100 nM | ≥ 40% | ≤ 100 nM |
| CC/C(=C(/c1ccc(/C=C/S(N)(=O)=O)cc1)c1ccc2[nH]ncc2c1)c1ccccc1 [Compound 452, (E)-2-(4-((E)-1-(1H-Indazol-5-yl)-2-phenylbut-1-en-1-yl)phenyl)ethenesulfonamide] | ++ (++ = a single % value ≧ 40%) | ≤ 100 nM | ≥ 40% | ≤ 100 nM |
| CC/C(=C(/c1ccc(/C=C/C(=O)O)cc1)c1cc(F)c2[nH]ncc2c1)c1cc[n+]([O-])cc1Cl [Compound 453, 4-((E)-1-(4-((E)-2-Carboxyvinyl)phenyl)-1-(7-fluoro-1H-indazol-5-yl)but-1-en-2-yl)-3-chloropyridine-1-oxide] | ++ (++ = a single % value ≧ 40%) | > 100 nM | ≥ 40% | > 100 nM |
